The assay relates to L1210 leukemia ip in BDF1 mice, survival T/C. Description: NCI In Vivo Anticancer Drug Screen. Data for tumor model L1210 Leukemia (intraperitoneal) in B6D2F1 (BDF1) mice. The settings on record: higher = longer survival. In outline: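 Transplanted-tumor mice were given test agent; controls received vehicle only. Survival readings from the two groups were divided (treated over control).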

The mark [1] stands for this setting: endpoint: mean survival time, dose: 100.0 mg/kg/injection, schedule: Q01DX001 (ip), vehicle: carboxymethylcellulose (CMC).
Where [2] appears, read: endpoint: mean survival time, dose: 100.0 mg/kg/injection, schedule: Q01DX009 (ip), vehicle: saline with Tween-80.
Where [3] appears, read: endpoint: mean survival time, dose: 100.0 mg/kg/injection, schedule: Q04DX003 (ip), vehicle: saline with Tween-80.
Setting [4] is: endpoint: mean survival time, dose: 200.0 mg/kg/injection, schedule: Q01DX009 (ip), vehicle: saline with Tween-80.
The mark [5] stands for this setting: endpoint: mean survival time, dose: 200.0 mg/kg/injection, schedule: Q04DX003 (ip), vehicle: saline with Tween-80.
[6] abbreviates: endpoint: mean survival time, dose: 400.0 mg/kg/injection, schedule: Q01DX009 (ip), vehicle: saline with Tween-80.
[7] abbreviates: endpoint: mean survival time, dose: 400.0 mg/kg/injection, schedule: Q04DX003 (ip), vehicle: saline with Tween-80.
The mark [8] stands for this setting: endpoint: mean survival time, dose: 100.0 mg/kg/injection, schedule: Q01DX001 (ip), vehicle: saline.
Where [9] appears, read: endpoint: mean survival time, dose: 200.0 mg/kg/injection, schedule: Q01DX001 (ip), vehicle: saline.
The mark [10] stands for this setting: endpoint: mean survival time, dose: 400.0 mg/kg/injection, schedule: Q01DX001 (ip), vehicle: saline.
[11] abbreviates: endpoint: mean survival time, dose: 400.0 mg/kg/injection, schedule: Q04DX002 (ip), vehicle: Klucel (hydroxypropylcellulose) (HPC).
Where [12] appears, read: endpoint: mean survival time, dose: 100.0 mg/kg/injection, schedule: Q04DX002 (ip), vehicle: Klucel (hydroxypropylcellulose) (HPC).
[13] abbreviates: endpoint: mean survival time, dose: 200.0 mg/kg/injection, schedule: Q04DX002 (ip), vehicle: Klucel (hydroxypropylcellulose) (HPC).
[14] abbreviates: endpoint: mean survival time, dose: 200.0 mg/kg/injection, schedule: Q01DX001 (ip), vehicle: carboxymethylcellulose (CMC).
The mark [15] stands for this setting: endpoint: mean survival time, dose: 400.0 mg/kg/injection, schedule: Q01DX001 (ip), vehicle: carboxymethylcellulose (CMC).

Our source for the T/C values is PubChem BioAssay AID248 (DTP/NCI, 2004).

“And” between values parts separate entries of the source, which are not always exact repeats. Equal entries are not always repeated. Inconclusive results and toxic doses are left out.

Turning to `OCC1OC(n2ccc3ccc(F)cc32)C(O)C1O` (stereo not drawn), the T/C was 97 % of control (endpoint: mean survival time, dose: 60.0 mg/kg/injection, schedule: Q01DX001 (ip), vehicle: saline) and 108 % of control (endpoint: mean survival time, dose: 120.0 mg/kg/injection, schedule: Q01DX001 (ip), vehicle: saline).
Take `Cc1cc(-c2ccccc2)c2ccc3c(-c4ccccc4)cc(C)nc3c2n1`: the T/C runs as follows: (endpoint: mean survival time, dose: 0.5 mg/kg/injection, schedule: Q01DX001 (ip), vehicle: carboxymethylcellulose (CMC)) 105 % of control; (endpoint: mean survival time, dose: 1.0 mg/kg/injection, schedule: Q01DX001 (ip), vehicle: carboxymethylcellulose (CMC)) 112 % of control; (endpoint: mean survival time, dose: 2.0 mg/kg/injection, schedule: Q01DX001 (ip), vehicle: carboxymethylcellulose (CMC)) 95 % of control; (endpoint: mean survival time, dose: 4.0 mg/kg/injection, schedule: Q01DX001 (ip), vehicle: carboxymethylcellulose (CMC)) 97 % of control; (endpoint: mean survival time, dose: 8.0 mg/kg/injection, schedule: Q01DX001 (ip), vehicle: carboxymethylcellulose (CMC)) 100 % of control; (endpoint: mean survival time, dose: 10.0 mg/kg/injection, schedule: Q01DX001 (ip), vehicle: carboxymethylcellulose (CMC)) 100 % of control. For the same compound, the T/C (endpoint: mean survival time, dose: 20.0 mg/kg/injection, schedule: Q01DX001 (ip), vehicle: carboxymethylcellulose (CMC)) was 95 % of control; the T/C (endpoint: mean survival time, dose: 80.0 mg/kg/injection, schedule: Q01DX001 (ip), vehicle: carboxymethylcellulose (CMC)) is 95 % of control; the T/C under setting [1] was 97 % of control.
With `CC(=O)OC1CCC(NC(=O)N(CCCl)N=O)CC1` (stereo not drawn), the T/C (endpoint: mean survival time, dose: 15.0 mg/kg/injection, schedule: Q01DX001 (ip), vehicle: other) was 225 % of control; the T/C (endpoint: mean survival time, dose: 30.0 mg/kg/injection, schedule: Q01DX001 (ip), vehicle: other) is 352 % of control; the T/C (endpoint: mean survival time, dose: 62.0 mg/kg/injection, schedule: Q01DX001 (ip), vehicle: other) is 244 % of control.
Take `O=C(NS(=O)(=O)c1ccc(Cl)c(Cl)c1)NS(=O)(=O)c1ccc(Cl)c(Cl)c1`: the T/C is 100 % of control (endpoint: mean survival time, dose: 100.0 mg/kg/injection, schedule: Q01DX001 (ip), vehicle: saline with Tween-80) and 99 % of control (endpoint: mean survival time, dose: 200.0 mg/kg/injection, schedule: Q01DX001 (ip), vehicle: saline with Tween-80).
Turning to `N#Cc1ccccc1NC(=S)Nc1ccc([N+](=O)[O-])cc1`, the T/C runs as follows: (endpoint: mean survival time, dose: 12.5 mg/kg/injection, schedule: Q01DX009 (ip), vehicle: saline with Tween-80) 95 % of control; (endpoint: mean survival time, dose: 25.0 mg/kg/injection, schedule: Q01DX009 (ip), vehicle: saline with Tween-80) 100 % of control; (endpoint: mean survival time, dose: 50.0 mg/kg/injection, schedule: Q01DX009 (ip), vehicle: saline with Tween-80) 95 % of control and 88 % of control.
For `CCSC(=O)N1c2ccc(OC)cc2C=CC1C#N` (stereo not drawn), the T/C runs as follows: under setting [2], 119 % of control; under setting [3], 101 % of control; under setting [4], 124 % of control; under setting [5], 97 % of control; under setting [6], 119 % of control; under setting [7], 111 % of control.
For the compound `O=c1[nH]cnc2c1[nH]c(=S)n2C1OC(CO)C(O)C1O` (stereo not drawn), the T/C under setting [8] is 108 % of control, the T/C under setting [9] is 96 % of control and the T/C under setting [10] is 100 % of control.
Take `NS(=O)(=O)c1cc2c(cc1Cl)NCNS2(=O)=O`: the T/C (endpoint: median survival time, dose: 125.0 mg/kg/injection, schedule: Q12HX016 (oral), vehicle: Klucel (hydroxypropylcellulose) (HPC)) is 95 % of control; the T/C (endpoint: median survival time, dose: 125.0 mg/kg/injection, schedule: Q12HX022 (oral), vehicle: Klucel (hydroxypropylcellulose) (HPC)) is 94 % of control; the T/C (endpoint: median survival time, dose: 250.0 mg/kg/injection, schedule: Q12HX016 (oral), vehicle: Klucel (hydroxypropylcellulose) (HPC)) is 93 % of control; the T/C (endpoint: median survival time, dose: 250.0 mg/kg/injection, schedule: Q12HX022 (oral), vehicle: Klucel (hydroxypropylcellulose) (HPC)) is 98 % of control; the T/C (endpoint: median survival time, dose: 500.0 mg/kg/injection, schedule: Q12HX016 (oral), vehicle: Klucel (hydroxypropylcellulose) (HPC)) is 93 % of control; the T/C (endpoint: median survival time, dose: 500.0 mg/kg/injection, schedule: Q12HX022 (oral), vehicle: Klucel (hydroxypropylcellulose) (HPC)) was 98 % of control.
Consider `Cc1c2c(nn1-c1ccccn1)C(=O)C=C(Nc1ccccc1)C2=O`, for which the T/C (endpoint: mean survival time, dose: 12.5 mg/kg/injection, schedule: Q04DX002 (ip), vehicle: Klucel (hydroxypropylcellulose) (HPC)) is 92 % of control; the T/C (endpoint: mean survival time, dose: 25.0 mg/kg/injection, schedule: Q04DX002 (ip), vehicle: Klucel (hydroxypropylcellulose) (HPC)) is 96 % of control; the T/C (endpoint: mean survival time, dose: 50.0 mg/kg/injection, schedule: Q04DX002 (ip), vehicle: Klucel (hydroxypropylcellulose) (HPC)) was 92 % of control; the T/C under setting [11] was 90 % of control.
As to `CC(=O)c1ccc2oc3ccccc3c2c1`, the T/C was 97 % of control under setting [12], 100 % of control under setting [13] and 93 % of control under setting [11].
Turning to `C=CC[N+](C)([O-])c1ccc(C(=O)OC)cc1` (stereo not drawn), the T/C was 107 % of control under setting [8], 102 % of control under setting [9] and 96 % of control under setting [10].
Regarding `CCOC(=O)CCN(Cc1ccccc1)C(=S)Nc1ccccc1`, the T/C (endpoint: mean survival time, dose: 25.0 mg/kg/injection, schedule: Q01DX Z (ip), vehicle: methylcellulose (MC)) is 98 % of control.
Regarding `CS(=O)(=O)Oc1cccc(C(F)(F)F)c1`, the T/C is, setting by setting: under setting [1], 107 % of control; under setting [14], 95 % of control; under setting [15], 98 % of control.
`O=S(=O)(c1ccc(Cl)cc1)c1ccc(Cl)cc1`: the T/C by setting is: (endpoint: mean survival time, dose: 100.0 mg/kg/injection, schedule: Q01DX009 (ip), vehicle: saline) 91 % of control; under setting [3], 102 % of control; (endpoint: mean survival time, dose: 100.0 mg/kg/injection, schedule: Q04DX003 (ip), vehicle: saline) 104 % of control; (endpoint: mean survival time, dose: 200.0 mg/kg/injection, schedule: Q01DX009 (ip), vehicle: saline) 95 % of control; under setting [5], 107 % of control; (endpoint: mean survival time, dose: 200.0 mg/kg/injection, schedule: Q04DX003 (ip), vehicle: saline) 95 % of control. For the same compound, the T/C (endpoint: mean survival time, dose: 400.0 mg/kg/injection, schedule: Q01DX009 (ip), vehicle: saline) was 93 % of control; the T/C under setting [7] was 95 % of control; the T/C (endpoint: mean survival time, dose: 400.0 mg/kg/injection, schedule: Q04DX003 (ip), vehicle: saline) was 106 % of control.
Consider `Cc1ccc(S(=O)(=O)N=P(c2ccccc2)(c2ccccc2)c2ccccc2)cc1`, for which the T/C (endpoint: mean survival time, dose: 50.0 mg/kg/injection, schedule: Q01DX001 (ip), vehicle: carboxymethylcellulose (CMC)) was 90 % of control; the T/C under setting [1] was 95 % of control; the T/C under setting [3] was 86 % of control; the T/C under setting [14] is 92 % of control; the T/C under setting [5] was 86 % of control; the T/C under setting [15] is 86 % of control. For the same compound, under setting [7], the T/C is 91 % of control.
In the case of `BrCC1=CC(c2ccccc2)(c2ccccc2)c2ccccc21`, the T/C was 89 % of control under setting [3], 89 % of control under setting [5] and 87 % of control under setting [7].
`Clc1ccc(Cl)c(N=NNc2cc(Cl)ccc2Cl)c1`: the T/C runs as follows: under setting [2], 101 % of control; under setting [3], 98 % of control; under setting [4], 101 % of control; under setting [5], 101 % of control; under setting [6], 103 % of control; under setting [7], 96 % of control.
In the case of `COc1ccc([N+](=O)[O-])cc1NS(=O)(=O)c1ccc(C)cc1`, the T/C runs as follows: (endpoint: mean survival time, dose: 50.0 mg/kg/injection, schedule: Q04DX003 (ip), vehicle: saline with Tween-80) 95 % of control; under setting [3], 94 % of control and 90 % of control; under setting [5], 86 % of control and 92 % of control; under setting [7], 92 % of control.
Consider `CCCC(OP(=S)(OCC(Cl)CC)OCC(Cl)CC)P(=O)(OCC(Cl)CC)OCC(Cl)CC` (stereo not drawn), for which the T/C is, setting by setting: (endpoint: mean survival time, dose: 100.0 mg/kg/injection, schedule: Q04DX002 (ip), vehicle: saline) 106 % of control; (endpoint: mean survival time, dose: 200.0 mg/kg/injection, schedule: Q04DX002 (ip), vehicle: saline) 106 % of control; (endpoint: mean survival time, dose: 400.0 mg/kg/injection, schedule: Q04DX002 (ip), vehicle: saline) 106 % of control.
Take `Cc1ccc(C(=O)/C=C(\C(=O)c2ccccc2)c2ccccc2)cc1C`: the T/C is 97 % of control under setting [12], 93 % of control under setting [13] and 97 % of control under setting [11].
